Measurements from ChEMBL document CHEMBL1157898 (Bioorg Med Chem Lett, 2010).
Active and inactive are the calls of the source. The rule behind the calls is not given here.

Columns and labels:
[1] = tested on: H4; assay: Toxicity in human H4 cells at 10 uM; assay type: cell-based; conditions: h4, 10 µM
[2] = target: Tyrosine-protein kinase BTK (Homo sapiens) (UniProt Q06187); assay: Inhibition of BTK
[3] = target: T1, Serine/threonine-protein kinase Chk1 (Homo sapiens) (UniProt O14757); assay: Inhibition of CHK1
T1 sequence (whole entry): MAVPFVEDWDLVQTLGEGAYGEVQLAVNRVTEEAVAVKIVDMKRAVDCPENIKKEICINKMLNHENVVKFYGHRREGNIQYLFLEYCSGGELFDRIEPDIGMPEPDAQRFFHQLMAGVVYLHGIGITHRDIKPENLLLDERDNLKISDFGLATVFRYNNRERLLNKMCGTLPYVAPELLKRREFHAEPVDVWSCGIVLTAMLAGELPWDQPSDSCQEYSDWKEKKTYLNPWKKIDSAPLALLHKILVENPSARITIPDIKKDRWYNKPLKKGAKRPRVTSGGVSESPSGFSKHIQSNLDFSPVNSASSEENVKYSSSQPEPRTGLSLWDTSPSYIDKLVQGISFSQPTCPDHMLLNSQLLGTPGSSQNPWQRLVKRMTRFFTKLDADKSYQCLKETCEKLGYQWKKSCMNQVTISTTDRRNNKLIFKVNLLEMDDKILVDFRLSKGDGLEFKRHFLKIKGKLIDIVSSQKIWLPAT

[4] = target: Casein kinase I isoform delta (Homo sapiens) (UniProt P48730); assay: Inhibition of CK1delta
[5] = target: RAF proto-oncogene serine/threonine-protein kinase (Homo sapiens) (UniProt P04049); assay: Inhibition of C-Raf
[6] = target: MAP/microtubule affinity-regulating kinase 3 (Homo sapiens) (UniProt P27448); assay: Inhibition of C-TAK1
[7] = target: Dual specificity tyrosine-phosphorylation-regulated kinase 1A (Homo sapiens) (UniProt Q13627); assay: Inhibition of DYRK1A
[8] = target: Mitogen-activated protein kinase 3 (Homo sapiens) (UniProt P27361); assay: Inhibition of ERK1
[9] = target: Fibroblast growth factor receptor 1 (Homo sapiens) (UniProt P11362); assay: Inhibition of FGFR1
[10] = target: Casein kinase I isoform delta (Homo sapiens) (UniProt P48730); assay: Inhibition of casein kinase delta at 10 uM; values are per cent of control
[11] = target: T2, Gamma-secretase (Homo sapiens) (UniProt Q96BI3+Q9NZ42+Q8WW43+P49768+Q92542+P49810); assay: Inhibition of gamma secretase in HEK293 cells assessed as amyloid beta 40 secretion at 50 uM; assay type: cell-based
[12] = target: T2, Gamma-secretase (Homo sapiens); assay: Inhibition of gamma secretase in HEK293 cells assessed as amyloid beta 38 secretion at 50 uM; assay type: cell-based
[13] = target: T2, Gamma-secretase (Homo sapiens); assay: Inhibition of gamma secretase in HEK293 cells assessed as amyloid beta 42 secretion at 50 uM; assay type: cell-based
[14] = target: T2, Gamma-secretase (Homo sapiens); assay: Inhibition of gamma secretase in HEK293 cells assessed as amyloid beta secretion at 150 uM; assay type: cell-based
[15] = target: T2, Gamma-secretase (Homo sapiens); assay: Inhibition of gamma secretase in HEK293 cells assessed as amyloid beta secretion at 250 uM; assay type: cell-based
[16] = tested on: N2a; assay: Inhibition of gamma secretase mediated amyloid beta 40 secretion in mouse N2a cells overexpressing CK1epsilon-271 within 5- to 50 uM after 3hr; assay type: cell-based
[17] = tested on: N2a; assay: Inhibition of gamma secretase mediated amyloid beta 42 secretion in mouse N2a cells overexpressing CK1epsilon-271 within 5- to 50 uM after 3hr; assay type: cell-based
[18] = target: T2, Gamma-secretase (Homo sapiens); assay: Inhibition of gamma secretase in HEK293 cells assessed as amyloid beta secretion; assay type: cell-based
[19] = target: T2, Gamma-secretase (Homo sapiens); assay: Inhibition of gamma secretase mediated amyloid beta 38 generation in human H4 cells at 5 uM by LPECL assay; values are per cent of control
[20] = target: T2, Gamma-secretase (Homo sapiens); assay: Inhibition of gamma secretase mediated amyloid beta 40 generation in human H4 cells at 5 uM by LPECL assay; values are per cent of control
[21] = target: T2, Gamma-secretase (Homo sapiens); assay: Inhibition of gamma secretase mediated amyloid beta 42 generation in human H4 cells at 5 uM by LPECL assay; values are per cent of control

RAF proto-oncogene serine/threonine-protein kinase (Homo sapiens), sequence (P04049 whole entry): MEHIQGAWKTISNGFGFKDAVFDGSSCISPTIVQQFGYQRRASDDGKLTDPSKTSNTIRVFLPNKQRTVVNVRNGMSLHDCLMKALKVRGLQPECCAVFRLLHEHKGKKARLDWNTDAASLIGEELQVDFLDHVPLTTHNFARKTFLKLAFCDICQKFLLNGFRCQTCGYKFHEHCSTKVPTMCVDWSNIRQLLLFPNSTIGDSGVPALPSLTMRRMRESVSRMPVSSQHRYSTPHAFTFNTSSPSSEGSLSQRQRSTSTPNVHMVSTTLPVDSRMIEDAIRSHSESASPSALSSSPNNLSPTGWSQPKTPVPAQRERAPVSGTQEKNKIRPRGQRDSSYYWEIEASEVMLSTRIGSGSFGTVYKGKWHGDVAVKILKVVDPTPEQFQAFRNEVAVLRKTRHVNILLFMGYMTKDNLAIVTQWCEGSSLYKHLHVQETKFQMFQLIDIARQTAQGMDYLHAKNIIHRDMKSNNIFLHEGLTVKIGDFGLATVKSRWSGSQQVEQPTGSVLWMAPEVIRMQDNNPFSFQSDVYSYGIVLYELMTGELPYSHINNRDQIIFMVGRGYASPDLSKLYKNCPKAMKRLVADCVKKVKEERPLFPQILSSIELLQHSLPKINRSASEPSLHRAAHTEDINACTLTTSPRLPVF
MAP/microtubule affinity-regulating kinase 3 (Homo sapiens), sequence (P27448 whole entry, looked up): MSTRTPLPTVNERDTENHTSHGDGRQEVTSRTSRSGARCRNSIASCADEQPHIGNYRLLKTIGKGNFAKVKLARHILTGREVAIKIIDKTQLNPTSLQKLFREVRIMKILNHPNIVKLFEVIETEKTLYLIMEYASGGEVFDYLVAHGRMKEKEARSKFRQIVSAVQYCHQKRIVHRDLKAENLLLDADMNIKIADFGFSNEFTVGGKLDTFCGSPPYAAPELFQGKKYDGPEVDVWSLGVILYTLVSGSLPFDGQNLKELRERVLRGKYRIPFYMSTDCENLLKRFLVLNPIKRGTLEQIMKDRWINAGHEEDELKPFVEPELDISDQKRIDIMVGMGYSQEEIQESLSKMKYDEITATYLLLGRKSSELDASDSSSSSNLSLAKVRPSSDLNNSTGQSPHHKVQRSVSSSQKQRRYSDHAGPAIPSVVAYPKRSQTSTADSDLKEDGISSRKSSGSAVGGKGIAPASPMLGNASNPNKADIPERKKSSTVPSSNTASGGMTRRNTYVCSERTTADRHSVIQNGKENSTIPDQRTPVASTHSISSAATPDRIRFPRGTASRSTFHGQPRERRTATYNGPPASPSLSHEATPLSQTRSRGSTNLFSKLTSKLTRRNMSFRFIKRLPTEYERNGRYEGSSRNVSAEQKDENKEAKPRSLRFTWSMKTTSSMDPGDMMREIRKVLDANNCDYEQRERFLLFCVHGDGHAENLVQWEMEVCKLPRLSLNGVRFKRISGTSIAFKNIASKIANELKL
Tyrosine-protein kinase BTK (Homo sapiens), sequence (Q06187 whole entry): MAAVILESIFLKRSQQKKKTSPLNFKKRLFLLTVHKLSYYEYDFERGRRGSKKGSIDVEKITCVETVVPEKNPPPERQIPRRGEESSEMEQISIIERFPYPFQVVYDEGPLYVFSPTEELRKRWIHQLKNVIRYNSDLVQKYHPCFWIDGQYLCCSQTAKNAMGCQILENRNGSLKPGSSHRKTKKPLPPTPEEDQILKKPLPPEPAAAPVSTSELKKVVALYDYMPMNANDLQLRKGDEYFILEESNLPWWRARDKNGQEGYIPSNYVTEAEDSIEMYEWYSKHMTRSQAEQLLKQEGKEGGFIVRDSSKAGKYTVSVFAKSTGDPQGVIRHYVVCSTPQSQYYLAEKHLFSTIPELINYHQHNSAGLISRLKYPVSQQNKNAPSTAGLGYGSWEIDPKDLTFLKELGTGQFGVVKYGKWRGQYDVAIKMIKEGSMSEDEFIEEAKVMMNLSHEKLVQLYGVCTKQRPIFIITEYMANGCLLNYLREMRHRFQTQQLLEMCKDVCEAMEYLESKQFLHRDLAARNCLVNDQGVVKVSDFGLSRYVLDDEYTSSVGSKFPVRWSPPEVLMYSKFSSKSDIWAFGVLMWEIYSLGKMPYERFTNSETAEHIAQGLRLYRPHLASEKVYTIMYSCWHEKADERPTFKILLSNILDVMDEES
Casein kinase I isoform delta (Homo sapiens), sequence (P48730 whole entry, looked up, canonical isoform): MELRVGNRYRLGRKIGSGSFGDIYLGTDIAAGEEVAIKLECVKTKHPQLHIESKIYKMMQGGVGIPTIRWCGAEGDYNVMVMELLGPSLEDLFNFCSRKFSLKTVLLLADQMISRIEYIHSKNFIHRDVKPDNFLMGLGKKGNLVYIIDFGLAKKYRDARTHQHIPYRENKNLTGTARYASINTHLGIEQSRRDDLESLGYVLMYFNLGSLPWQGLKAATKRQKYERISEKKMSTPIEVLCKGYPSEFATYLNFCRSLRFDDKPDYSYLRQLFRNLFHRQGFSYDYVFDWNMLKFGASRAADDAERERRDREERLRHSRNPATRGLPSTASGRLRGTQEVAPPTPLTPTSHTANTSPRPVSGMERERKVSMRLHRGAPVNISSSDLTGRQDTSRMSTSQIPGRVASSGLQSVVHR
Fibroblast growth factor receptor 1 (Homo sapiens), sequence (P11362 22-822 limits assumed): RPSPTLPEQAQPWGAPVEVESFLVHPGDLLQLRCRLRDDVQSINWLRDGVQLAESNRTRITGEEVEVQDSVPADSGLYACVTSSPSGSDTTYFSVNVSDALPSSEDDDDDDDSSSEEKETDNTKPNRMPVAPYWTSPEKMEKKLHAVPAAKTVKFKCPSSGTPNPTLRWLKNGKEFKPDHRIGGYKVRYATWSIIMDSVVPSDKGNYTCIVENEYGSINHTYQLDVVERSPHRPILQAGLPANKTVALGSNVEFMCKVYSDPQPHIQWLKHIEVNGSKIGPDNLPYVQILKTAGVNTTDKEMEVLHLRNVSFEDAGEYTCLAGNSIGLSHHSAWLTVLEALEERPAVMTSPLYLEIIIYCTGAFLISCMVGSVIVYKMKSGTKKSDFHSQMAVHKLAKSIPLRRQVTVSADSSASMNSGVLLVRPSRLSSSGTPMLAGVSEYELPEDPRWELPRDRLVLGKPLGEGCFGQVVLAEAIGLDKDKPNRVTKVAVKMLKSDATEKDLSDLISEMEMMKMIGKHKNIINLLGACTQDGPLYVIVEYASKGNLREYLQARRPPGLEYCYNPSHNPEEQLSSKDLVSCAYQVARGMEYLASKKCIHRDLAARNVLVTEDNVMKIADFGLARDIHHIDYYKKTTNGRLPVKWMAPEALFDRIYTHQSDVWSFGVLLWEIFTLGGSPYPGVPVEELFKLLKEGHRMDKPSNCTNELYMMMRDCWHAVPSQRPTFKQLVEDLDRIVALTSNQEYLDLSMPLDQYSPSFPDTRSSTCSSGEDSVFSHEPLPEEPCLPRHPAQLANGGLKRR
Mitogen-activated protein kinase 3 (Homo sapiens), sequence (P27361 whole entry): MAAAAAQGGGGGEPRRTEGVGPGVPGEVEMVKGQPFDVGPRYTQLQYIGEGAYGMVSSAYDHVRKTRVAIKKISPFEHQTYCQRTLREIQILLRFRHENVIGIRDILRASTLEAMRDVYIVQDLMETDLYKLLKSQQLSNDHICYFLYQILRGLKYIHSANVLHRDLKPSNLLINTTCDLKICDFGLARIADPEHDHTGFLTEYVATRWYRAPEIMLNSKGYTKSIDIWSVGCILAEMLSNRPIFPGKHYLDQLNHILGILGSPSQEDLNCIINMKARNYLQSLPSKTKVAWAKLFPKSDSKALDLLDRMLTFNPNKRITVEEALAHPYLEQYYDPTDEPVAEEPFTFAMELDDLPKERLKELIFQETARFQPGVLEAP

COc1cc(/C=C2/C(=O)Nc3ccc(Cl)cc32)cc(OC)c1OC
Activity [1]: 80 µM

COc1cc(OC)c(/C=C2/C(=O)Nc3ccc(Cl)cc32)c(OC)c1
Activity [1]: 20 µM
inhibition ([2]; concentration not given here): < 20%
inhibition ([3]; concentration not given here): < 20%
inhibition ([4]; concentration not given here): < 20%
inhibition ([5]; concentration not given here): < 20%
inhibition ([6]; concentration not given here): < 20%
inhibition ([7]; concentration not given here): < 20%
inhibition ([8]; concentration not given here): < 20%
inhibition ([9]; concentration not given here): < 20%
residual activity [10]: 87%

COc1cc(OC)c(C=C2C(=O)Nc3ccccc32)c(OC)c1
inhibition [11]: inactive
inhibition [12]: inactive
inhibition [13]: inactive
inhibition [14]: inactive
inhibition [15]: Active
inhibition [16]: 68%
inhibition [17]: 61%
inhibition [2]: inactive
inhibition [3]: inactive
inhibition [5]: inactive
inhibition [6]: inactive
inhibition [7]: inactive
inhibition [8]: inactive
inhibition [9]: inactive
residual activity [10]: 19%

CCN(CC)CCNC(=O)c1c(C)[nH]c(/C=C2\C(=O)Nc3ccc(F)cc32)c1C [SUNITINIB]
Activity [1]: 40 µM
Activity [18]: inactive

COc1ccc(/C=C2/C(=O)Nc3ccc(Cl)cc32)c(OC)c1OC
Activity [1]: 20 µM
inhibition [2]: inactive
inhibition [3]: inactive
inhibition [4]: inactive
inhibition [5]: inactive
inhibition [6]: inactive
inhibition [7]: inactive
inhibition [8]: inactive
inhibition [9]: inactive
residual activity [10]: 99%

O=C1Nc2ccc(Cl)cc2/C1=C\c1cc(F)cc(F)c1
residual activity [19]: 81%
residual activity [20]: 106%
residual activity [21]: 112%
